The record followed here is patent publication US20080108600A1, “Polycyclic Pyridines as Potassium Ion Channel Modulators” (Icagen, Inc., priority 2004, published 2008).

Each structure is given as a SMILES string. Where “and” joins values, the source holds several entries; their conditions need not be identical. Equal values may be shown once. Where a name gives a salt, the structure may show the parent alone.

This experiment has as its target hSK2 (Homo sapiens, UniProt Q9H2S1). The experiment can be described thus: 86Rb+ efflux assay for compound activity towards hSK channels. It is filed as cell-based. Conditions: 86Rb+ efflux stimulated with calcium ionophore; drug 0.01 to 30 μM; read-out: hSK2 Inhibitory Activity. Here is the method:
24.1 Assay for Compound Activity Towards hSK Channels
Cells expressing small conductance, calcium activated potassium channels, such as SK-like channels were loaded with ^86Rb^+ by culture in media containing ^86RbCl. Following loading, the culture media was removed and the cells were washed in EBSS to remove residual traces of ^86Rb^+. Cells were preincubated with the drug (0.01 to 30 μM in EBSS) and then ^86Rb^+ efflux was stimulated by exposing cells to EBSS solution supplemented with a calcium ionophore, such as ionomycin, in the continued presence of the drug. After a suitable efflux period, the EBSS/ionophore solution was removed from the cells and the ^86Rb^+ content was determined by Cherenkov counting (Wallac Trilux). Cells were then lysed with a SDS solution and the ^86Rb^+ content of the lysate was determined. Percent ^86Rb^+ efflux was calculated according to the following equation:
(^86Rb^+ content in EBSS/(86Rb^+ content in EBSS+^86Rb^+ content of the lysate))×100
Take `Cc1cnn(-c2cccc(Nc3ccc(C(C)C)cn3)n2)c1` [(5-Isopropyl-pyridin-2-yl)-[6-(4-methyl-pyrazol-1-yl)-pyridin-2-yl]-amine]: the IC50 is < 100 nM.
With `Brc1ccc(Nc2cccc(-c3nccs3)n2)nc1` [(5-Bromo-pyridin-2-yl)-(6-thiazol-2-yl-pyridin-2-yl)-amine], the IC50 is < 100 nM.
As to `c1cc(Nc2cc3ccccc3cn2)nc(-c2nccs2)c1` [Isoquinolin-3-yl-(6-thiazol-2-yl-pyridin-2-yl)-amine], the IC50 is < 100 nM.
Turning to `COc1ccc(-c2nccs2)nc1Nc1ccc(N2CCCN(C)CC2)cn1` [(3-Methoxy-6-thiazol-2-yl-pyridin-2-yl)-[5-(4-methyl-[1,4]diazepan-1-yl)-pyridin-2-yl]-amine], the IC50 was in the range of 100 to 500 nM.
Turning to `COc1ccc(-c2nccs2)nc1Nc1ccc(-c2ccccc2)cn1` [(3-Methoxy-6-thiazol-2-yl-pyridin-2-yl)-(5-phenyl-pyridin-2-yl)-amine], the IC50 was 100 to 500 nM.
With `COc1ccc(-c2nccs2)nc1Nc1ccc(N2CCNC(C)C2)cn1` (centres unmarked) [(3-Methoxy-6-thiazol-2-yl-pyridin-2-yl)-[5-(3-methyl-piperazin-1-yl)-pyridin-2-yl]-amine], the IC50 was 100 to 500 nM.
For `CCOC(=O)CCc1ccc(Nc2cccc(-c3nccs3)n2)nc1` [3-[6-(6-Thiazol-2-yl-pyridin-2-ylamino)-pyridin-3-yl]-propionic acid ethyl ester] the value was < 100 nM; for `COCCN(C)c1ccc(Nc2cccc(-c3ncc(Cl)s3)n2)nc1` [N^2-[6-(5-Chloro-thiazol-2-yl)-pyridin-2-yl]-N^5-(2-methoxy-ethyl)-N^5-methyl-pyridine-2,5-diamine], < 100 nM.
For `c1cc(Nc2ccc(CN3CCc4ccccc4C3)cn2)nc(-c2nccs2)c1` [[5-(3,4-Dihydro-1H-isoquinolin-2-ylmethyl)-pyridin-2-yl]-(6-thiazol-2-yl-pyridin-2-yl)-amine], the IC50 is < 100 nM.
As to `c1ccc(-c2cc(Nc3cccc(-c4nccs4)n3)[nH]n2)cc1` [(5-Phenyl-2H-pyrazol-3-yl)-(6-thiazol-2-yl-pyridin-2-yl)-amine], the IC50 was < 100 nM.
With `c1cc(Nc2nnc(C3CC3)s2)nc(-c2nccs2)c1` [(5-Cyclopropyl-[1,3,4]thiadiazol-2-yl)-(6-thiazol-2-yl-pyridin-2-yl)-amine], the IC50 was in the range of 100 to 500 nM.
In the case of `Cc1cnc(-c2cccc(Nc3ccc(N4CCCCC4)cn3)n2)s1` [[6-(5-Methyl-thiazol-2-yl)-pyridin-2-yl]-(3,4,5,6-tetrahydro-2H-[1,3′]bipyridinyl-6′-yl)-amine], the IC50 fell in the range of 100 to 500 nM.
Consider `Cc1cnn(-c2cccc(Nc3ccc(F)cn3)n2)c1` [(5-Fluoro-pyridin-2-yl)-[6-(4-methyl-pyrazol-1-yl)-pyridin-2-yl]-amine], for which the IC50 was < 100 nM.
Take `Cc1cnn(-c2cccc(Nc3ccc(N4CCC(C)CC4)cn3)n2)c1` [[6-(4-Methyl-pyrazol-1-yl)-pyridin-2-yl]-(4-methyl-3,4,5,6-tetrahydro-2H-[1,3′]bipyridinyl-6′-yl)-amine]: the IC50 was 100 to 500 nM.
Take `COc1ccc(-c2nccs2)nc1Nc1ccc(-c2ccccn2)cn1` [[2,3′]Bipyridinyl-6′-yl-(3-methoxy-6-thiazol-2-yl-pyridin-2-yl)-amine]: the IC50 was < 100 nM.
For `COc1ccc(-c2nccs2)nc1Nc1ccc(NC2CN3CCC2CC3)cn1` (centres unmarked) [N^5-(1-Aza-bicyclo[2.2.2]oct-3-yl)-N^2-(3-methoxy-6-thiazol-2-yl-pyridin-2-yl)-pyridine-2,5-diamine], the IC50 lay within 100 to 500 nM.
With `Cc1ccc(-c2cccc(-c3nc4ccc(Cl)cc4[nH]3)n2)nc1` [6′-(6-Chloro-1H-benzoimidazol-2-yl)-5-methyl-[2,2′]bipyridinyl], the IC50 lay within 100 to 500 nM.
For the compound `COc1ccc(Nc2cccc(-n3cc(C)cn3)n2)nc1` [(5-Methoxy-pyridin-2-yl)-[6-(4-methyl-pyrazol-1-yl)-pyridin-2-yl]-amine], the IC50 was < 100 nM.
`COc1ccc(-c2ncc(Cl)s2)nc1Nc1ccccn1` [[6-(5-Chloro-thiazol-2-yl)-3-methoxy-pyridin-2-yl]-pyridin-2-yl-amine]: the IC50 is < 100 nM.
On to `Cc1cnc(-c2cccc(Nc3ccccn3)n2)s1` [[6-(5-Methyl-thiazol-2-yl)-pyridin-2-yl]-pyridin-2-yl-amine], for which the IC50 is < 100 nM.
The figure for `COc1ccc(-c2nccs2)nc1Nc1ccccn1` [(3-Methoxy-6-thiazol-2-yl-pyridin-2-yl)-pyridin-2-yl-amine] is < 100 nM.
Consider `COc1ccc(-c2ccccn2)nc1Nc1ccc(C(C)C)cn1` [(5-Isopropyl-pyridin-2-yl)-(5-methoxy-[2,2′]bipyridinyl-6-yl)-amine], for which the IC50 is < 100 nM.
As to `O=C1CCCCN1c1ccc(Nc2cccc(-n3cccn3)n2)nc1` [6′-(6-Pyrazol-1-yl-pyridin-2-ylamino)-3,4,5,6-tetrahydro-[1,3′]bipyridinyl-2-one], the IC50 is < 100 nM.
The figure for `CC(C)c1cnc(-c2cccc(Nc3ccccn3)n2)s1` [[6-(5-Isopropyl-thiazol-2-yl)-pyridin-2-yl]-pyridin-2-yl-amine] is < 100 nM; for `Clc1cnc(-c2cccc(Nc3ccccn3)n2)s1` [[6-(5-Chloro-thiazol-2-yl)-pyridin-2-yl]-pyridin-2-yl-amine] it is < 100 nM; for `Brc1ccc(Nc2cccc(-n3cccn3)n2)nc1` [(5-Bromo-pyridin-2-yl)-(6-pyrazol-1-yl-pyridin-2-yl)-amine] it is < 100 nM.
For `Fc1cccc(Nc2cccc(-c3nccs3)n2)n1` [(6-Fluoro-pyridin-2-yl)-(6-thiazol-2-yl-pyridin-2-yl)-amine] the value was 500 to 1000 nM; for `COc1ccc(-c2nccs2)nc1Nc1ccc(C(C)C)cn1` [(5-Isopropyl-pyridin-2-yl)-(3-methoxy-6-thiazol-2-yl-pyridin-2-yl)-amine], < 100 nM and 100 to 500 nM.
As for `c1ccc(CNCc2ccc(Nc3cccc(-c4nccs4)n3)nc2)cc1` [5-[(Benzylamino)methyl]-N-[6-(1,3-thiazol-2-yl)pyridin-2-yl]pyridin-2-amine dihydrochloride], the IC50 fell in the range of 100 to 500 nM.
The figure for `COc1ccc(-c2nccs2)nc1Nc1ccc(N(C)C2CCN(C)C2)cn1` (centres unmarked) [N^2-(3-Methoxy-6-thiazol-2-yl-pyridin-2-yl)-N^5-methyl-N^5-(1-methyl-pyrrolidin-3-yl)-pyridine-2,5-diamine] is 100 to 500 nM; for `Clc1cnc(-c2cccc(Nc3ccc(N4CCOCC4)cn3)n2)s1` [[6-(5-Chloro-thiazol-2-yl)-pyridin-2-yl]-(5-morpholin-4-yl-pyridin-2-yl)-amine] it is < 100 nM.
Regarding `CCc1cnc(-c2cccc(Nc3ccccn3)n2)s1` [[6-(5-Ethyl-thiazol-2-yl)-pyridin-2-yl]-pyridin-2-yl-amine], the IC50 is < 100 nM.
The figure for `CN1CCN(c2ccc(Nc3cccc(-n4cccn4)n3)nc2)CC1` [[5-(4-Methyl-piperazin-1-yl)-pyridin-2-yl]-(6-pyrazol-1-yl-pyridin-2-yl)-amine] is 500 to 1000 nM; for `Cc1ccc(-c2ccc(Nc3cccc(-c4nccs4)n3)nc2)o1` [[5-(5-Methyl-furan-2-yl)-pyridin-2-yl]-(6-thiazol-2-yl-pyridin-2-yl)-amine] it is < 100 nM.
The figure for `COc1ccc(-c2ccccn2)nc1Nc1ccc(N2CCN(C)CC2)cn1` [(5-Methoxy-[2,2′]bipyridinyl-6-yl)-[5-(4-methyl-piperazin-1-yl)-pyridin-2-yl]-amine] is < 100 nM.
The figure for `COc1ccc(-c2ccccn2)nc1Nc1ccc(N2CCCCC2)cn1` [(5-Methoxy-[2,2′]bipyridinyl-6-yl)-(3,4,5,6-tetrahydro-2H-[1,3′]bipyridinyl-6′-yl)-amine] is < 100 nM.
With `COc1ccc(-c2ncc(Cl)s2)nc1Nc1ccc(N2CCCCC2)cn1` [[6-(5-Chloro-thiazol-2-yl)-3-methoxy-pyridin-2-yl]-(3,4,5,6-tetrahydro-2H-[1,3′]bipyridinyl-6′-yl)-amine], the IC50 was 100 to 500 nM.
The figure for `Clc1cnc(-c2cccc(Nc3ccc(N4CCCC4)cn3)n2)s1` [[6-(5-Chloro-thiazol-2-yl)-pyridin-2-yl]-(5-pyrrolidin-1-yl-pyridin-2-yl)-amine] is < 100 nM.
As for `COc1ccccc1-c1ccc(Nc2cccc(-n3cc(C)cn3)n2)nc1` [[5-(2-Methoxy-phenyl)-pyridin-2-yl]-[6-(4-methyl-pyrazol-1-yl)-pyridin-2-yl]-amine], the IC50 is < 100 nM.
Turning to `COc1ccc(-c2cnccn2)nc1Nc1ccc(C(C)C)cn1` [(5-Isopropyl-pyridin-2-yl)-(3-methoxy-6-pyrazin-2-yl-pyridin-2-yl)-amine], the IC50 is 100 to 500 nM.
As for `C=C(C)c1ccc(Nc2cccc(-n3cc(C)cn3)n2)nc1` [(5-Isopropenyl-pyridin-2-yl)-[6-(4-methyl-pyrazol-1-yl)-pyridin-2-yl]-amine], the IC50 was < 100 nM.
Take `COc1ccc(-c2cnccn2)nc1Nc1ccc(N2CCCCC2)cn1` [(3-Methoxy-6-pyrazin-2-yl-pyridin-2-yl)-(3,4,5,6-tetrahydro-2H-[1,3′]bipyridinyl-6′-yl)-amine]: the IC50 is < 100 nM.
For `COc1ccc(-c2ncc(Cl)s2)nc1Nc1ccc(N2CCOCC2)cn1` [[6-(5-Chloro-thiazol-2-yl)-3-methoxy-pyridin-2-yl]-(5-morpholin-4-yl-pyridin-2-yl)-amine], the IC50 was < 100 nM.
Take `c1cc(Nc2ccc(-c3ccco3)cn2)nc(-c2cnccn2)c1` [(5-Furan-2-yl-pyridin-2-yl)-(6-pyrazin-2-yl-pyridin-2-yl)-amine]: the IC50 is < 100 nM.
